Assays:
[1] = tested on: isolated canine cardiac Purkinje fibers; experiment: Calcium-dependent slow response action potential amplitude (SAPA), standard microelectrode techniques; type: cell-based; details: Canis lupus familiaris, read-out: IC50 in reducing slow response action potential amplitude (SAPA)
Description: (§1) The calcium channel blocking and sodium entry blocking activities of compounds of the present invention were tested using standard microelectrode techniques in isolated canine cardiac Purkinje fibers as reported in J. L. Bergey et al., "Antiarrhythmic, hemodynamic, and cardiac electrophysiological evaluation of N-(2,6-dimethylphenyl)-N'-[3-(1-methylethylamino)propyl]-urea), (Wy 42,362)", Arzneim -Forsch, 33:1258, 1983). […] Depression of this parameter indicates depression of calcium entry into cardiac tissue. […] Significant depression of the upstroke velocity (vmax) indicates the blocking of sodium entry into cardiac tissue.

[2] = tested on: Ischemic and Nonischemic Isolated Rat Heart; experiment: Isolated perfused rat heart (Langendorff), global ischemia/reperfusion: cardiac function, flow and LDH release; set-up: species or system rat (male Sprague-Dawley); FLOW (coronary blood flow): unit not given here; details: 1 μM
Description: Lactate dehydrogenase is an enzyme released in the heart during an ischemic event and is an index of cardiac cell necrosis. In the Grover et al. model, this is measured during reperfusion and an agent which provides for lower release levels of LDH is considered to offer greater cardioprotection since lower LDH indicates a smaller infarct size. Cardiac function is determined using the double product (DP) of heart rate times the left ventricular developed pressure (LVDP) divided by 1,000.
The lower the value for DP before ischemia for a given agent, the more cardiodepressant it is considered to be.
Male Sprague-Dawley rats (450-550 g) were used in all experiments. The rats were anesthetized using 30 mg/kg sodium pentobarbital (i.p.). They were intubated and then treated with i.v. heparin (1000 U/kg). While being mechanically ventilated, their hearts were perfused in situ via retrograde cannulation of the aorta. The hearts were then excised and quickly moved to a Langendorff apparatus where they were perfused with Krebs-Henseleit bicarbonate buffer (112 mM NaCl, 5 mM KCl, 1.2 mMMg SO4, 1 mM KH2 PO4, 1.25 mM CaCl2, 11.5 mM dextrose, and 2 mM pyruvate) at a constant pressure (75 mm Hg). A water filled latex balloon attached to a metal cannula was then inserted into the left ventricle and connected to a Statham pressure transducer for measurement of left ventricular pressure. The hearts were allowed to equilibrate for 15 minutes at which time end diastolic pressure (EDP) was adjusted to 5 mm Hg and this was maintained for 5 minutes. Pre-ischemia or pre-drug function, heart rate and coronary blood flow (extracorporeal electromagnetic flow probe, Carolina Medical Electronics, King, N.C.) were then measured. Cardiac function was determined using the double product of heart rate (HR) times left ventricular developed pressure (LVDP) divided by 1,000.
All of these hearts were treated with their respective drugs or vehicle for ten minutes. At this time, post-drug cardiac function and flow were measured and then the hearts were made globally ischemic by shutting off the buffer perfusion. The ischemia was maintained for 25 minutes at which time reperfusion with nondrug treated buffer was instituted. Reperfusion was maintained for 30 minutes and at this time reperfusion function and flow were again determined.
At the end of the reperfusion period, the reperfusion buffer was sampled for cumulative LDH release as previously described. LDH release was expressed as U/g preischemia heart weight for the 30 minute collection period. LDH release is a sensitive index for loss of cell viability. Determination of the relationship between pre-ischemic, post-drug cardiac function was made by dividing the double product (HR ×LVDP/1000) by the cumulative LDH release.
All data were analyzed using a one way analysis of variance. Multiple comparisons were done using the Duncan procedure. All data are expressed as the mean±SE.
The pre-ischemia DP values are a measure of the cardiodepression of the drug on the healthy cardiac tissue.
The post-ischemia LDH values are a measure of the cardioprotection or anti-ischemic activity of the drug. In this case, lower values indicate greater anti-ischemic activity or greater cardioprotection.
The LDH/DP values are the ratio of cardioprotection to cardiodepression, the lower values indicating a greater selectivity for anti-ischemic activity.
The post-ischemia DP indicates cardiodepression after the ischemic episode and the lower DP values here are indicative of agents which still remained in the cardiac tissue for more than 30 minutes post ischemia. [drawing 16]

rabbit aorta = experiment: Reduction of tone of rabbit aorta by high potassium (Vasc. Ca^++ Block); type: cell-based; details: Oryctolagus cuniculus; read-out: IC50 in reducing tone of rabbit aorta by high potassium (Vasc. Ca^++ Block)
Text: |(SAPA), in reducing maximum upstroke velocity (Vmax) |and in reducing tone of rabbit aorta by high potassium |(Vasc. Ca^++ Block)

[3] = tested on: isolated canine cardiac Purkinje fibers; experiment: Normal action potential parameters incl. upstroke velocity (Vmax; sodium entry), standard microelectrode techniques; type: cell-based; details: for Vmax (velocity of upstroke): in V/s (unit assumed)
Description: as §1

[4] = tested on: 24 hour post-infarction arrhythmias in dogs; experiment: Antiarrhythmic activity in standard canine arrhythmia model (24 hour post-infarction arrhythmias); type: in vivo, dog; details: intravenous doses ranging from 6 to 15 mg/kg
Description: Antiarrhythmic activity was confirmed for the compound of Example 1 using a standard canine arrhythmia model as reported in J. L. Bergey et al., "Antiarrhythmic, hemodynamic, and cardiac electrophysiological evaluation of N-(2,6-dimethylphenyl)-N'-[3-(1-methylethylamino)propyl]urea), (Wy 42,362)", Arzneim -Forsch, 33:1258, 1983). In dogs suffering from 24 hour post-infarction arrhythmias the compound of Example 1 reversed arrhythmias in 5 out of 5 dogs tested following intravenous doses ranging from 6 to 15 mg/kg.

[5] = Postischemia (30 min.), occlusion 25 minutes, reperfusion 30 minutes

IC50 [1]: > 10 µM
IC50 (rabbit aorta): 1.6 µM
SMILES: CN(C)CCCN(C(=O)Cc1ccccc1)c1ccccc1SCc1ccc(Cl)cc1 [Example 1, N-[2-[[(4-Chlorophenyl)methyl]thio]phenyl]-N-[3-(dimethylamino)propyl]benzeneacetamide]
DP (Double Product, HR x LVDP / 1,000) [2, 5]: 7
FLOW (coronary blood flow) [2, 5]: 12
HR (Heart Rate) [2, 5]: 211 beats/min
LVDP (Left Ventricular Developed Pressure) [2, 5]: 34 mmHg
LDH (Lactate Dehydrogenase Release) ([2]; Postischemia, cumulative over 30 min reperfusion, per g preischemia heart weight, lower = greater cardioprotection): 12 U/g
FLOW (coronary blood flow) ([2]; Preischemia (Post Drug)): 25
HR (Heart Rate) ([2]; Preischemia (Post Drug)): 229 beats/min
LVDP (Left Ventricular Developed Pressure) ([2]; Preischemia (Post Drug)): 90 mmHg
DP (Double Product, HR x LVDP / 1,000) ([2]; Preischemia (Post Drug), lower = more cardiodepressant): 21
cardioprotection compared with diltiazem ([2]; post-ischemia LDH): comparable to diltiazem in cardioprotection
LDH/DP ([2]; ratio of cardioprotection to cardiodepression, lower = greater selectivity): 0.55
APD 50 (action potential duration @ 50% repolarization) ([3]; 1 × 10^-5): 160 ± 3
APD90 (action potential duration @ 90% repolarization) ([3]; 1 × 10^-5): 320 ± 3
PP (peak potential) ([3]; 1 × 10^-5): 11 ± 2
RP (resting potential) ([3]; 1 × 10^-5): 89 ± 1
Vmax (velocity of upstroke) ([3]; 1 × 10^-5): 203 ± 19
APD 50 (action potential duration @ 50% repolarization) ([3]; 1 × 10^-6): 219 ± 3
APD90 (action potential duration @ 90% repolarization) ([3]; 1 × 10^-6): 320 ± 3
PP (peak potential) ([3]; 1 × 10^-6): 35 ± 1
RP (resting potential) ([3]; 1 × 10^-6): 94 ± 1
Vmax (velocity of upstroke) ([3]; 1 × 10^-6): 443 ± 7
APD 50 (action potential duration @ 50% repolarization) ([3]; 3 × 10^-6): 154 ± 3
APD90 (action potential duration @ 90% repolarization) ([3]; 3 × 10^-6): 305 ± 4
PP (peak potential) ([3]; 3 × 10^-6): 28 ± 1
RP (resting potential) ([3]; 3 × 10^-6): 89 ± 1
Vmax (velocity of upstroke) ([3]; 3 × 10^-6): 375 ± 11
IC50 ([3]; Canis lupus familiaris, purkinje, sodium entry, read-out: IC50 in reducing maximum upstroke velocity (Vmax)): 6.7 µM
reversed arrhythmias (dogs tested) [4]: 5 out of 5

From patent US5116851A, “Pharmaceutical composition and method for treating cardiovascular diseases using substituted anilides and sulfonamides” (E. R. Squibb & Sons, Inc., priority 1990, dated 1992)
